Assay results reported in PubChem BioAssay (NCI).
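Results reflect a 48-hour exposure of cells in 96-well plates to compound at five concentrations. GI50: concentration for 50% inhibition of growth. Definition used: TGI = concentration required for complete inhibition of growth.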

Legend:
Assay in all cases: NCI-60 cell line screen, 48 h
[1] = system: 786-0 renal
[2] = system: EKVX NSCLC
[3] = system: K-562 leukemia
[4] = system: KM12 colon
[5] = system: MDA-MB-435
[6] = system: MOLT-4 leukemia
[7] = system: OVCAR-4 ovarian
[8] = system: SF-539 CNS
[9] = system: SK-MEL-2 melanoma
[10] = system: SNB-19 CNS

## COCCn1cc(-c2csc(-c3c[nH]c4ccc(Br)cc34)n2)c2cccnc21
[1]
  GI50: 4.03 µM
  TGI: > 100 µM
[2]
  GI50: 2.05 µM
  TGI: > 100 µM
[3]
  GI50: 3.6 µM
  TGI: > 100 µM
[4]
  GI50: 2.74 µM
  TGI: > 100 µM
[5]
  GI50: 4.12 µM
  TGI: > 100 µM
[6]
  GI50: 3.87 µM
  TGI: > 100 µM
[7]
  GI50: 2.74 µM
  TGI: > 100 µM
[8]
  GI50: 7.34 µM
  TGI: > 100 µM
[9]
  GI50: 6.82 µM
  TGI: 67.6 µM
[10]
  GI50: 12.2 µM
  TGI: > 100 µM

## O=C(O)Cc1cccc2c(=O)c3cccc([N+](=O)[O-])c3oc12
[1]
  TGI: > 100 µM
[2]
  TGI: > 100 µM
[3]
  TGI: > 100 µM
[4]
  TGI: > 100 µM
[5]
  TGI: > 100 µM
[6]
  TGI: > 100 µM
[7]
  TGI: > 100 µM
[8]
  TGI: > 100 µM
[9]
  TGI: > 100 µM
[10]
  TGI: > 100 µM

## COc1cc2c(cc1C)NC(=O)/C2=C\c1c[nH]c2ccccc12
[1]
  GI50: 17.8 µM
  TGI: 49.2 µM
[2]
  GI50: 10.9 µM
  TGI: 29.7 µM
[3]
  GI50: 8.07 µM
  TGI: 51.5 µM
[4]
  GI50: 0.417 µM
  TGI: 21.1 µM
[5]
  GI50: 14.3 µM
  TGI: 43.8 µM
[6]
  GI50: 5.87 µM
  TGI: 43.5 µM
[7]
  GI50: 12.3 µM
  TGI: 40.5 µM
[8]
  GI50: 14 µM
  TGI: 31.9 µM
[9]
  GI50: 4.04 µM
  TGI: 25 µM
[10]
  GI50: 16.4 µM
  TGI: 41.7 µM

## CN(C)c1ccc2nc(CC(O)(C(F)(F)F)C(F)(F)F)ccc2c1
[1]
  TGI: > 10 µM
[2]
  TGI: > 10 µM
[3]
  TGI: > 10 µM
[4]
  TGI: > 10 µM
[5]
  TGI: > 10 µM
[6]
  TGI: > 10 µM
[7]
  TGI: > 10 µM
[8]
  TGI: > 10 µM
[9]
  TGI: > 10 µM
[10]
  TGI: > 10 µM

## Cc1ccc(S(=O)(=O)N2CCc3ccc(O)c4c3C2Cc2ccc3c(c2-4)OCO3)cc1 (stereo not given)
[1]
  GI50: 0.894 µM
  TGI: 20.8 µM
[2]
  GI50: 4.34 µM
  TGI: > 100 µM
[3]
  GI50: 0.455 µM
  TGI: > 100 µM
[4]
  GI50: 0.456 µM
  TGI: 3.66 µM
[5]
  GI50: 0.216 µM
  TGI: 0.539 µM
[6]
  GI50: 2.42 µM
  TGI: 20.3 µM
[7]
  GI50: 0.934 µM
  TGI: 33.3 µM
[8]
  GI50: 1.02 µM
  TGI: 5.26 µM
[9]
  GI50: 1.34 µM
  TGI: 7.33 µM
[10]
  GI50: 1.4 µM
  TGI: > 100 µM

## O=c1c(Cl)cc2nc3ccccc3sc-2c1Cl
[1]
  TGI: 45.8 µM
[2]
  TGI: 14.9 µM
[3]
  TGI: > 100 µM
[4]
  TGI: 38.4 µM
[5]
  TGI: 7.8 µM
[6]
  TGI: > 100 µM
[7]
  TGI: 27.4 µM
[8]
  TGI: 30.8 µM
[9]
  TGI: 27.1 µM
[10]
  TGI: 32.9 µM

## C/C(=N/N=C(N)N)c1ccc(NC(=O)Nc2ccc(/C(C)=N/N=C(N)N)cc2)cc1
[1]
  GI50: 10.7 µM
  TGI: 30.1 µM
[2]
  GI50: 19.2 µM
  TGI: 49 µM
[3]
  GI50: 5.84 µM
  TGI: > 59.9 µM
[4]
  GI50: 9.78 µM
  TGI: > 77.7 µM
[5]
  GI50: 16 µM
  TGI: > 83.8 µM
[6]
  GI50: 25.7 µM
  TGI: > 100 µM
[7]
  GI50: 17.1 µM
  TGI: 61.1 µM
[8]
  GI50: 17.9 µM
  TGI: 36.1 µM
[9]
  GI50: 18.4 µM
  TGI: 60.6 µM
[10]
  GI50: 19.6 µM
  TGI: 45 µM

## Nc1ccc(Sc2c3ccccc3nc3ccccc23)cc1
[1]
  TGI: 14.7 µM
[2]
  TGI: 58.9 µM
[3]
  TGI: 22.6 µM
[4]
  TGI: 40.4 µM
[5]
  TGI: 35.1 µM
[6]
  TGI: 27.1 µM
[7]
  TGI: 29.4 µM
[8]
  TGI: 31 µM
[9]
  TGI: 34.1 µM
[10]
  TGI: 51.6 µM

## CSc1ccc(C(=O)/C=C/c2ccccc2Cl)cc1
[1]
  GI50: 13.1 µM
  TGI: 27.6 µM
[2]
  GI50: 19.7 µM
  TGI: 37 µM
[3]
  GI50: 18.8 µM
  TGI: 58.3 µM
[4]
  GI50: 16.6 µM
  TGI: 42 µM
[5]
  GI50: 12.4 µM
  TGI: 30.2 µM
[6]
  GI50: 24 µM
  TGI: > 100 µM
[7]
  GI50: 25.7 µM
  TGI: 66 µM
[8]
  GI50: 16.5 µM
  TGI: 33.1 µM
[9]
  GI50: 16.2 µM
  TGI: 37.7 µM
[10]
  GI50: 26.5 µM
  TGI: 61.2 µM

## FC(F)(F)c1cc(Nc2ccc3cc(OCCCN4CCOCC4)ccc3n2)ccc1Cl
[1]
  GI50: 1.3 µM
  TGI: 2.81 µM
[2]
  GI50: 2.3 µM
  TGI: 6.21 µM
[3]
  GI50: 1.04 µM
  TGI: 3.83 µM
[4]
  GI50: 1.92 µM
  TGI: 4.37 µM
[5]
  GI50: 1.75 µM
  TGI: 3.61 µM
[6]
  GI50: 2.16 µM
  TGI: 6.82 µM
[7]
  GI50: 2.54 µM
  TGI: 12.8 µM
[8]
  GI50: 1.75 µM
  TGI: 3.73 µM
[9]
  GI50: 1.99 µM
  TGI: 3.88 µM
[10]
  GI50: 1.84 µM
  TGI: 3.79 µM

## CCC[CH2][Pb]([Cl])([CH2]CCC)[CH2]CCC
[1]
  GI50: 0.0177 µM
  TGI: 0.037 µM
[2]
  GI50: 0.066 µM
  TGI: 0.218 µM
[3]
  GI50: 0.0277 µM
  TGI: 0.931 µM
[4]
  GI50: 0.0326 µM
  TGI: 0.081 µM
[5]
  GI50: 0.0178 µM
  TGI: 0.0366 µM
[6]
  GI50: 0.0245 µM
  TGI: 0.731 µM
[7]
  GI50: 0.0472 µM
  TGI: 0.184 µM
[8]
  GI50: 0.0338 µM
  TGI: 0.0892 µM
[9]
  GI50: 0.0229 µM
  TGI: 0.0724 µM
[10]
  GI50: 0.188 µM
  TGI: 0.33 µM

## COC1=CC(=O)c2nc(Cl)ccc2C1=O
[1]
  GI50: 2.02 µM
  TGI: 3.76 µM
[2]
  GI50: 1.78 µM
  TGI: 3.53 µM
[3]
  GI50: 2.98 µM
  TGI: > 100 µM
[4]
  GI50: 2.11 µM
  TGI: 4.82 µM
[5]
  GI50: 1.79 µM
  TGI: 3.36 µM
[6]
  GI50: 0.807 µM
  TGI: 7.77 µM
[7]
  GI50: 1.5 µM
  TGI: 2.83 µM
[8]
  GI50: 1.62 µM
  TGI: 3.03 µM
[9]
  GI50: 2.07 µM
  TGI: 3.98 µM
[10]
  GI50: 13.7 µM
  TGI: 28 µM

## CC1(C)N=C(N)N=C(N)N1c1cccc(Br)c1
[1]
  GI50: 0.093 µM
  TGI: > 100 µM
[2]
  GI50: 17.4 µM
  TGI: > 100 µM
[3]
  GI50: 0.0597 µM
  TGI: > 100 µM
[4]
  GI50: 0.769 µM
  TGI: > 100 µM
[5]
  GI50: 0.0612 µM
  TGI: > 100 µM
[6]
  GI50: 0.94 µM
  TGI: > 100 µM
[7]
  GI50: 8.66 µM
  TGI: > 100 µM
[8]
  GI50: 0.393 µM
  TGI: > 100 µM
[9]
  GI50: > 100 µM
  TGI: > 100 µM
[10]
  GI50: 1.68 µM
  TGI: > 100 µM

## Nc1ncnc2c1ccn2[C@@H]1O[C@H]([C@H](O)c2ccc(Cl)c(F)c2)[C@@H](O)[C@H]1O
[1]
  GI50: > 100 µM
  TGI: > 100 µM
[2]
  GI50: > 100 µM
  TGI: > 100 µM
[3]
  GI50: > 100 µM
  TGI: > 100 µM
[4]
  GI50: > 100 µM
  TGI: > 100 µM
[5]
  GI50: > 100 µM
  TGI: > 100 µM
[6]
  GI50: > 100 µM
  TGI: > 100 µM
[7]
  GI50: > 100 µM
  TGI: > 100 µM
[8]
  GI50: > 100 µM
  TGI: > 100 µM
[9]
  GI50: > 100 µM
  TGI: > 100 µM
[10]
  GI50: > 100 µM
  TGI: > 100 µM
